Reference: US7504393B2, “Benzylamine analogues” (priority 2001, dated 2009)
Counter-ions that a name gives are not always drawn. Like-named read-outs stand apart in the source and are kept apart here.

Key:
[1] = target: T1, acetylcholinesterase (Mus musculus, UniProt P21836); assay: biochemical
T1 construct: phosphate buffer solution containing the brain homogenate; from tissue; host or cells: mouse whole brain homogenate
T1 sequence (P21836 32-614): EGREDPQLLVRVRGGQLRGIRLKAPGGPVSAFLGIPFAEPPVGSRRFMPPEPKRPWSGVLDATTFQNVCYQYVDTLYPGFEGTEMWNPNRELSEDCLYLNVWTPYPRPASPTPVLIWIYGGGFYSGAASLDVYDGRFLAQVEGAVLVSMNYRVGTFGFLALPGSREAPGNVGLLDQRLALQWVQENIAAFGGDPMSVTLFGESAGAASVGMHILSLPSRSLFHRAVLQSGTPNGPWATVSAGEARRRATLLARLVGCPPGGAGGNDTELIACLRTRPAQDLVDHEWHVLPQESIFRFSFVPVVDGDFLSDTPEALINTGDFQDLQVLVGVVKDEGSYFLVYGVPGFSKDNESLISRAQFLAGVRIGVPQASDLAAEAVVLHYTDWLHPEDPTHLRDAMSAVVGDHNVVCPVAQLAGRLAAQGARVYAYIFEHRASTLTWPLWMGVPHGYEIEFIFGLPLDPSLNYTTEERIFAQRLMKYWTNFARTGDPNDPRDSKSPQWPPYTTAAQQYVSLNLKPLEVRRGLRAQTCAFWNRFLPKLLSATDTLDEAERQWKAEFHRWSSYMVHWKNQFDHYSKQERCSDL

[2] = target: T2, serotonin re-uptake (Rattus norvegicus, UniProt P31652); assay: Serotonin re-uptake inhibitory activity (synaptosome, [3H]5-HT); format: biochemical; conditions: synaptosome from rat whole brain except cerebellum; [3H]5-HT, 37° C.; read-out: IC50 (nM) Serotonin re-uptake inhibitory activity
T2 construct: synaptosome prepared from rat whole brains except the cerebellums; from tissue; host or cells: synaptosomes from rat whole brain except the cerebellum
T2 sequence (P31652 whole entry): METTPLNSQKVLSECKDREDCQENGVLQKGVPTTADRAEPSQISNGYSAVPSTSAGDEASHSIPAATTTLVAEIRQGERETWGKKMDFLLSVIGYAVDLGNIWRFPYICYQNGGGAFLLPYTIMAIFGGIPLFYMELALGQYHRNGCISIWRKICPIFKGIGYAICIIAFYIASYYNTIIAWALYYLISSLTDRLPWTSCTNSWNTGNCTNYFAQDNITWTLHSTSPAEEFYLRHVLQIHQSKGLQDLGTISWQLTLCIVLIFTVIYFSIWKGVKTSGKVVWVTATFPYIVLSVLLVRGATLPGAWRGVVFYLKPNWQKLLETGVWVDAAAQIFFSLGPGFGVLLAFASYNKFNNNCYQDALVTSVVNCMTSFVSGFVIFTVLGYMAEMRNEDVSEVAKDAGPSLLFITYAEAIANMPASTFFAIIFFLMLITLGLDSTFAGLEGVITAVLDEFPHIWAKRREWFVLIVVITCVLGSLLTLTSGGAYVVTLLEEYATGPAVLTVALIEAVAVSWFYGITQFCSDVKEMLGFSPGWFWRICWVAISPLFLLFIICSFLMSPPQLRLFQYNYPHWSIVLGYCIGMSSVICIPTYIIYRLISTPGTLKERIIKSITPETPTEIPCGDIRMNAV
Procedure: Serotonin re-uptake inhibitory activity was determined using synaptosome prepared from rat whole brains except the cerebellums. Briefly, 10 μl of DMSO solution-dissolved test substance (control group; DMSO solution alone) was added to 1 ml of synaptosome and incubated for 5 min at 37° C. (in the control, DMSO alone was added to the synaptosome and incubated at 4° C.). Furthermore, 10 μl of [^3H]5-HT solution (final concentration: 10 μM as a total concentration of 5-HT, 100 nM as [^3H]5-HT) was added and incubated for 5 min at 37° C. Then 4 ml of ice-cold saline was added to stop the response. The response solution was filtered, 4 ml of saline was added, and the solution was once again filtered. Furthermore, 5 ml of Pico-Fluor was added, then ^3H levels on filter papers were counted by a liquid scintillation counter. Concentrations of test compounds to inhibit serotonin re-uptake by 50% (IC50) were calculated.

| Compound | IC50 [1] [nM] | IC50 [2] [nM] | IC50 ([1]; mouse whole brain homogenate, acetylthiocholine/DTNB, absorbance 412 nm, read-out: IC50 (nM) Acetylcholinesterase inhibitory activity) [nM] |
| --- | --- | --- | --- |
| CN(C)C(=O)Oc1ccc([C@@H](CCOc2ccc(F)c(F)c2)N(C)C)cc1 [Test Compound 152, (R)-4-[3-(3,4-Difluorophenoxy)-1-dimethylaminopropyl]phenyl dimethylcarbamate hydrochloride] | 310 | 67 | – |
| CN[C@@H](CCOc1ccc(F)c(F)c1)c1ccc(OC(=O)N(C)C)cc1 [Test Compound 162, (S)-4-[3-(3,4-Difluorophenoxy)-1-methylaminopropyl]phenyl dimethylcarbamate hydrochloride] | 790 | 594 | – |
| CNC(CCOc1cccc2ccccc12)c1ccc(OC(=O)N(C)C)cc1 (centres unmarked) [Test Compound 179, 4-[3-(Naphthalen-1-yloxy)-1-methylaminopropyl]phenyl dimethylcarbamate hydrochloride] | 372 | 86 | – |
| CNC(CCOc1ccc2ncccc2c1)c1ccc(OC(=O)N(C)C)cc1 (centres unmarked) [Test Compound 180, 4-[3-(Quinolin-6-yloxy)-1-methylaminopropyl]phenyl dimethylcarbamate hydrochloride] | 111 | 104 | – |
| CN(C)C(=O)Oc1ccc(C(CCOc2c(F)c(F)c(F)c(F)c2F)N(C)C)cc1 (centres unmarked) [Test Compound 181, 4-[3-(Pentafluorophenoxy)-1-dimethylaminopropyl]phenyl dimethylcarbamate hydrochloride] | 198 | 44 | – |
| CN[C@@H](CCOc1ccc([N+](=O)[O-])cc1)c1ccc(OC(=O)N(C)C)c(C)c1 [Test Compound 183, (S)-4-[3-(4-Nitrophenoxy)-1-methylaminopropyl]-2-methylphenyl dimethylcarbamate hydrochloride] | 26 | 67 | – |
| CN[C@H](CCOc1ccc([N+](=O)[O-])cc1)c1ccc(OC(=O)N(C)C)c(C)c1 [Test Compound 184, (R)-4-[3-(4-Nitrophenoxy)-1-methylaminopropyl]-2-methylphenyl dimethylcarbamate hydrochloride] | 56 | 49 | – |
| CN(C)C(=O)Oc1ccc2c(c1)CCN(C)C2CCOc1ccc([N+](=O)[O-])cc1 (centres unmarked) [Test Compound 187, 2-Methyl-1-[2-(4-nitrophenoxy) -ethyl]-1,2,3,4-tetrahydroisoquinolin-6-yl dimethylcarbamate hydrochloride] | 11 | 940 | – |
| Cc1cc(OCCC2c3ccc(OC(=O)N(C)C)cc3CCN2C)ccc1Cl (centres unmarked) [Test Compound 188, 2-Methyl-1-[2-(4-chloro-3-methylphenoxy)-ethyl]-1,2,3,4-tetrahydroisoquinolin-6-yl dimethylcarbamate hydrochloride] | 53 | 150 | – |
| CN(C)C(=O)Oc1ccc2c(c1)CCN(C)C2CCOc1ccc([N+](=O)[O-])cc1Cl (centres unmarked) [Test Compound 189, 2-Methyl-1-[2-(2-chloro-4-nitrophenoxy)-ethyl]-1,2,3,4-tetrahydroisoquinolin-6-yl dimethylcarbamate hydrochloride] | 6 | 300 | – |
| CN(C)C(=O)Oc1ccc2c(c1)CCN(C)[C@@H]2CCOc1ccc([N+](=O)[O-])cc1Cl [Test Compound 190, 2-Methyl-1-(R)-[2-(2-chloro-4-nitrophenoxy)-ethyl]-1,2,3,4-tetrahydroisoquinolin-6-yl dimethylcarbamate hydrochloride] | 12 | 460 | – |
| CN(C)C(=O)Oc1ccc2c(c1)C(CCOc1ccc(Cl)cc1)N(C)CC2 (centres unmarked) [Test Compound 191, 2-Methyl-1-[2-(4-chlorophenoxy)-ethyl]-1,2,3,4-tetrahydroisoquinolin-7-yl dimethylcarbamate hydrochloride] | 265 | 520 | – |
| CN(C)C(=O)Oc1ccc2c(c1)CCCN(C)C2CCOc1ccc([N+](=O)[O-])cc1Cl (centres unmarked) [Test Compound 193, 2-Methyl-1-[2-(2-chloro-4-nitrophenoxy)-ethyl]-1,3,4,5-tetrahydro-1H-benzo[c]azepin-7-yl dimethylcarbamate hydrochloride] | – | 680 | 24 |
| Cc1cc(OCCC2c3ccc(OC(=O)N(C)C)cc3C=CCN2C)ccc1Cl (centres unmarked) [Test Compound 194, 2-Methyl-1-[2-(4-chloro-3-methylphenoxy)-ethyl]-2,3-dihydro-1H-benzo[c]azepin-7-yl dimethylcarbamate hydrochloride] | 103 | 61 | – |
| CN(C)C(=O)Oc1ccc2c(c1)C=CCN(C)C2CCOc1ccc(F)cc1Cl (centres unmarked) [Test Compound 195, 2-Methyl-1-[2-(2-chloro-4-fluorophenoxy) -ethyl]-2,3-dihydro-1H-benzo[c]azepin-7-yl dimethylcarbamate hydrochloride] | 50 | 44 | – |
| CNC(CCOc1ccc(Cl)c([N+](=O)[O-])c1)c1cccc(OC(=O)N(C)C)c1 (centres unmarked) [Test Compound 203, 3-[3-(4-Chloro-3-nitrophenoxy)-1-methylaminopropyl]phenyl dimethylcarbamate hydrochloride] | 49 | 40 | – |
